No end group written: not given here.
biological target: T1, I-A^g7 (Mus musculus, UniProt P04228+Q31135); type: binding, NOD mouse
T1 sequence (P04228 24-256): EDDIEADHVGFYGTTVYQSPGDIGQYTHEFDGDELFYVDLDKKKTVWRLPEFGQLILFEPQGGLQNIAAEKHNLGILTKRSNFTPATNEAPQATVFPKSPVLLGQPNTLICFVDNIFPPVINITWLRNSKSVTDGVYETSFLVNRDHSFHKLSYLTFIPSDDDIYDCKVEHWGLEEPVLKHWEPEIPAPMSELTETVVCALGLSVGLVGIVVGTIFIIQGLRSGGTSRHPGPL
T1 sequence (Q31135 1-263): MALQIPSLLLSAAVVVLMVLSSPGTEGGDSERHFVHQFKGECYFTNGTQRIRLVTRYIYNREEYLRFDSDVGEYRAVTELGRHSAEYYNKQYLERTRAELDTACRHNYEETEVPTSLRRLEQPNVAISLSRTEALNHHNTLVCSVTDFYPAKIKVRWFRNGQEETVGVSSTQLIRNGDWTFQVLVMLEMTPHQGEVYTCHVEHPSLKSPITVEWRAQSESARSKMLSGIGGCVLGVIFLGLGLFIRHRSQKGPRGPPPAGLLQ

Point of comparison: RTGIAQALSSFDLHS [330–344], IC50 5.7 µM. Against it:
- AVDGVISVHSLHIW [292–305] — within 1.5-fold, 5.1 µM
- SVRAAFVHALGDVF [212–225] — 9.5-fold lower, 0.6 µM
- LTIQIESAADQDPSC [345–359] — 5.2-fold lower, 1.1 µM
- GHVAGSLAILTDAA [91–104] — 9.5-fold lower, 0.6 µM
- GYNHKDVQANASVR [201–214] — 15-fold higher, 88.2 µM

Reference: publication PMC4171664 (Diabetes, 2014)
